Data from PMC11774580 (Chemosphere, 2024).

Tests used:
human OCT2 [1] = target: T1, human OCT2 (Homo sapiens, UniProt O15244); assay: hOCT2 substrate; type: in vitro ADME; details: 1 μM PFAS screen
T1 sequence (O15244 1-555): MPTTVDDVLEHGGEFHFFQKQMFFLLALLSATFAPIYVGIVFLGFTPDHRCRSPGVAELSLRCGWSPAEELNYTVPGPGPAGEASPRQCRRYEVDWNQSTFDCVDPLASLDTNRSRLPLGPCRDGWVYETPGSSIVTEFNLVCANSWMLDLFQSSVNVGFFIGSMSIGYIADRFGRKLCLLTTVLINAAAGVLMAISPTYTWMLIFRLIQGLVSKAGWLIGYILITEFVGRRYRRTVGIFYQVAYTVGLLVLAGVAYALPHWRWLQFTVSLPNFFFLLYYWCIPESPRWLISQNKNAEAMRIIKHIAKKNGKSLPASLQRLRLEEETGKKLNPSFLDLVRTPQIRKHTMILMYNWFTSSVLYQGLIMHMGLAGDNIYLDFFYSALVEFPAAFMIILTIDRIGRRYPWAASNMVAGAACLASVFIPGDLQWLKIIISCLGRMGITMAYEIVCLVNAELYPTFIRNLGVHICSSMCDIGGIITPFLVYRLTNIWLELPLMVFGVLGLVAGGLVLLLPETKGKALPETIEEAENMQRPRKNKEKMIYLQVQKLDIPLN

human OCT2 [2] = target: T1, human OCT2; assay: OCT2 inhibition assay; type: cell-based
[3] = Physicochemical parameters
[4] = test system: MDCKII-LE cell monolayers; details: MDCK
in vitro = details: dog, MDCK, pH 7.4
human OAT3 = target: T2, human OAT3 (Homo sapiens, UniProt Q8TCC7); assay: OAT3 inhibition assay
T2 sequence (Q8TCC7 1-542): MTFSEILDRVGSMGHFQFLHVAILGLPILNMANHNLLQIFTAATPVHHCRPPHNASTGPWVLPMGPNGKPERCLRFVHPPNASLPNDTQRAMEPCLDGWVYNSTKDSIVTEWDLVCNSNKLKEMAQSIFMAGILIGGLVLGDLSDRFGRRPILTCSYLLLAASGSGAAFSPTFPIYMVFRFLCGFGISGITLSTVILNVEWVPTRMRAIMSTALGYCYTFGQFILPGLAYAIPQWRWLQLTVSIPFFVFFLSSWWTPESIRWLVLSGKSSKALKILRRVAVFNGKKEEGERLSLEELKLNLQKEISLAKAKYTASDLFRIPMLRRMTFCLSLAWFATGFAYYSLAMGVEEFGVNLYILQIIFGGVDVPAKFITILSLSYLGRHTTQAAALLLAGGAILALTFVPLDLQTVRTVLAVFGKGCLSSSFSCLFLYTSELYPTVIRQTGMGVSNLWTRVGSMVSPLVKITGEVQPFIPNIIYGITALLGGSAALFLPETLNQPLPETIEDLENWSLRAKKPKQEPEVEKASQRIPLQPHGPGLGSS

NS(=O)(=O)C(F)(F)C(F)(F)C(F)(F)C(F)(F)C(F)(F)C(F)(F)C(F)(F)C(F)(F)F [PFOSA, perfluorooctanesulfonamide]
hOCT2 uptake ratio, % higher than mock transfectant controls (human OCT2 [1]): ~ 10%
IC50 (human OCT2 [2]): 245 µM
neutral fraction at pH 7.4 [3]: ~ 6%
Papp at pH 6.5 relative to pH 7.4, times higher [4]: ~ 2 times
Ph 7.4 A-B Papp ([4]; dog, 90 min, 2 μM, pH 7.4): 41.4 ×10⁻⁶ cm/s
Papp A→B at 90 min, 2 μM (in vitro): 41.4 ×10⁻⁶ cm/s
IC50 (human OAT3): 21.1 to 123 µM
